Measurements published in patent publication US9290490B2 (Merck Sharp & Dohme Corp., priority 2011, dated 2016).
Read-outs that look alike come from different tables or passages of the source.

Experiments:
[1] = molecular target: recombinant human GST-Syk (Homo sapiens (Human), UniProt P43405); assay: Homogeneous Time-Resolved Fluorescence (HTRF) Assay for the Recombinant Human Syk Enzyme; format: biochemical; settings: recombinant human GST-Syk 5 pM, ATP 25 μM
Method: Homogeneous Time-Resolved Fluorescence (HTRF) Assay for the Recombinant Human Syk Enzyme:
A recombinant GST-hSyk fusion protein was used to measure potency of compounds to inhibit human Syk activity. The recombinant human GST-Syk (Carna Biosciences #08-176) (5 pM final concentration) was incubated with various concentrations of the inhibitor diluted in DMSO (0.1% final concentration) for 10 minutes at room temperature in 15 mM Tris-HCl (pH 7.5), 0.01% tween 20, 2 mM DTT in 384 well plate format. To initiate the reaction the biotinylated substrate peptide (250 nM final concentration) that contains the phosphorylation site for Syk was added with magnesium (5 mM final concentration) and ATP (25 μM final concentration). Final volume of the reaction was 10 μL. Phosphorylation of the peptide was allowed to proceed for 45′ at room temperature. To quench the reaction and detect the phosphorylated product, 2 nM of a Europium-anti-phosphotyrosine antibody (Perkin Elmer #AD0161) and 70 nM SA-APC (Perkin-Elmer #CR130-100) were added together in 15 mM Tris pH 7.5, 40 mM EDTA, 0.01% Tween 20. Final volume of the quenching solution was 10 μL. The resulting HTRF signal was measured after 30 minutes on a EnVision (Perkin-Elmer) reader using a time-resolved fluorescence protocol. […] IC50 values are also provided for the following representative compounds: […]

[2] = allergic rhinitis, phase II; cited from earlier work
PGD2 = settings: intranasal, allergic rhinitis, phase I/II; cited from earlier work
[3] = read-out: rhSyk Activity (IC50)
[4] = 10-dose titration, read-out: rhSyk

SMILES | IC50 [1, 3] | IC50 [1, 4] | other results
Cc1cc(Nc2nccc(C(F)(F)F)n2)cc(-c2cnc(C(O)(CF)[C@H]3CC[C@H](C(=O)O)CC3)s2)c1 (stereo partly drawn) [Example 9, trans-4-{2-fluoro-1-hydroxy-1-[5-(3-methyl-5-{[4-(trifluoromethyl)pyrimidin-2-yl]amino}phenyl)-1,3-thiazol-2-yl]ethyl}cyclohexanecarboxylic acid] | ≤ 0.1 µM | – | –
Cc1cc(Nc2nccc(C(F)(F)F)n2)cc(-c2cnc([C@@](O)(CF)[C@H]3CC[C@H](C(=O)O)CC3)s2)c1 [Example 10] | ≤ 0.1 µM | – | –
Cc1cc(Nc2nccc(C(F)(F)F)n2)cc(-c2cnc(C(O)C3CCC(O)CC3(C)C)s2)c1 (centres unmarked) [Example 12, 4-{hydroxy[5-(3-methyl-5-{[4-(trifluoromethyl)pyrimidin-2-yl]amino}phenyl)-1,3-thiazol-2-yl]methyl}-3,3-dimethylcyclohexanol] | ≤ 0.1 µM | – | –
CCOC(=O)C1CCC(Cc2ncc(-c3cc(C)cc(Nc4nccc(C)n4)c3)s2)CC1 (centres unmarked) [Example 13, step 2, ethyl 4-[(5-{3-methyl-5-[(4-methylpyrimidin-2-yl)amino]phenyl}-1,3-thiazol-2-yl)methyl]cyclohexanecarboxylate] | 0.1 to 1 µM | 0.301 µM | –
COC(=O)[C@@H]1CC(C(=O)c2ncc(-c3cc(C)cc(Nc4nccc(C(F)(F)F)n4)c3)s2)[C@H](O)C1(C)C (stereo partly drawn) [Example 14, methyl (1,3-cis, 1,4-trans)-3-hydroxy-2,2-dimethyl-4-{[5-(3-methyl-5-{[4-(trifluoromethyl)-pyrimidin-2-yl]amino}phenyl)-1,3-thiazol-2-yl]carbonyl}cyclopentanecarboxylate] | 0.1 to 1 µM | 0.85 µM | –
Cc1cc(Nc2nccc(C(F)(F)F)n2)cc(-c2cnc(C(O)C3CCC4(CC3)OCCO4)s2)c1 (centres unmarked) [Example 22, 1,4-dioxaspiro[4.5]dec-8-yl[5-(3-methyl-5-{[4-(trifluoromethyl)pyrimidin-2-yl]amino}phenyl)-1,3-thiazol-2-yl]methanol] | 0.1 to 1 µM | 0.197 µM | –
Cc1cc(Nc2nccc(C(F)(F)F)n2)cc(-c2cnc(C(C)(O)C3CCC(C)(O)CC3)s2)c1 (centres unmarked) [Example 23, 4-{1-hydroxy-1-[5-(3-methyl-5-{[4-(trifluoromethyl)pyrimidin-2-yl]amino}phenyl)-1,3-thiazol-2-yl]ethyl}-1-methylcyclohexanol] | ≤ 0.1 µM | – | –
Oc1cccc(Nc2ncc(F)c(Nc3cccc(O)c3)n2)c1 [Example R112] | – | – | efficacy versus placebo [2]: lack of efficacy; decrease in PGD2 (PGD2): statistically significant decrease; safety across a range of indicators (PGD2): safe
Cc1cc(Nc2nccc(C(F)(F)F)n2)cc(-c2cncs2)c1 [Intermediate 21, N-[3-methyl-5-(1,3-thiazol-5-yl)phenyl]-4-(trifluoromethyl)pyrimidin-2-amine] | ≤ 0.1 µM | – | –
